From patent US20250032439A1, “NOVEL COMPOSITIONS” (DSM IP ASSETS B.V., priority 2021, published 2025)

What follows are molecules tested against T1, human 5-HT2B receptor (Homo sapiens, UniProt P41595) (assay: Antagonism of human serotonin 5-HT2B, IP1 functional assay (HTRF) in transfected CHO cells). Conditions: inhibition of IP1 production induced by 30 nM 5-HT.
T1 construct: expressed in transfected cells; host or cells: CHO cells
Format: cell-based
Description: The human 5-HT2B receptor expressed in transfected CHO cells is used to determine antagonistic effects by measuring the effects on agonist-induced inositol monophosphate (IP1) production using the HTRF® detection method (Porter et al., 1999, Brit. J. Pharmacol., 128: 13-20; Trinquet et al., 2006, Analytical Biochemistry 358, 126-135) The CHO cells can be suspended in a buffer containing 10 mM Hepes/NaOH (pH 7.4), 4.2 mM KCl, 146 mM NaCl, 1 mM CaCl2, 0.5 mM MgCl2, 5.5 mM glucose and 50 mM LiCl, then distributed in microtiter plates at a density of about 20000 cells/well and preincubated for 5 min at room temperature in the presence of buffer (basal control), test compound, i.e. reference samples and inventive mixture of retinyl acetate (“retAc”) (see Table 1) or a very potent known reference antagonist SB-206553. Thereafter, the reference agonist 5-HT (serotonin) is added at a final concentration of 30 nM. […] Following 30 min incubation at 37° C., the cells are lysed and the fluorescence acceptor (D2-labeled IP1) and fluorescence donor (anti-IP1 antibody labeled with europium cryptate) are added. After 60 min at room temperature, the fluorescence transfer is measured at wavelengths Ex=337 nm and Em=620 and 665 nm using a microplate reader (Envision, Perkin Elmer). The IP1 concentration can be determined by dividing the signal measured at 665 nm by that measured at 620 nm (ratio). The results are expressed as a percent inhibition of the control response to 30 nM 5-HT. Mean values, standard deviation are calculated and used in a dose response model to calculate the IC50 values.
The standard reference antagonist SB-206553 is tested in each experiment at several concentrations to generate a concentration-response curve. The dose response curve is used to calculate the IC50 value. The same procedure is done for RetAc mix and the Reference RetAc to determine the IC50 values.

T1 sequence (P41595 whole entry): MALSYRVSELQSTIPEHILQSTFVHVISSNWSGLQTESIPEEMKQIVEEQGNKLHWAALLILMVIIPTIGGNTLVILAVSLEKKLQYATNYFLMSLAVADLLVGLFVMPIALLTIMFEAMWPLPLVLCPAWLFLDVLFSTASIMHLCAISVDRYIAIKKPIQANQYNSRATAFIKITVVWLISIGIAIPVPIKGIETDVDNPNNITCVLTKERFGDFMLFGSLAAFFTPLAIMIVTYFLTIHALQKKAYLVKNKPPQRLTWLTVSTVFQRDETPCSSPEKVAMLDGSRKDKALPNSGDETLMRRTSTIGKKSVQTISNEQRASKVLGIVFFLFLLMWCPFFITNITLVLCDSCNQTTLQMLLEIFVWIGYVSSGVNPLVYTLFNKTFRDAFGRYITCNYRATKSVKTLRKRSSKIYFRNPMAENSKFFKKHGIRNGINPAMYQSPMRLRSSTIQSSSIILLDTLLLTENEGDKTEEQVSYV

Q: How did the IC50 turn out when `CC(=O)OC/C=C(C)/C=C/C=C(C)/C=C/C1=C(C)CCCC1(C)C` [Reference retAc, retinyl acetate] was run?
A: 12 µM

Q: How did the IC50 turn out when `CC(=O)OC/C=C(C)/C=C/C=C(C)/C=C/C1=C(C)CCCC1(C)C` [RetAc mix, retinyl acetate] was run?
A: 5.2 µM

Q: `Cn1ccc2cc3c(cc21)CCN3C(=O)Nc1cccnc1` [SB-206553] was tested. Which IC50 did it give?
A: 0.026 µM
